Results as given in ChEMBL document CHEMBL1649565, “Besifloxacin, a novel fluoroquinolone, has broad-spectrum in vitro activity against aerobic and anaerobic bacteria” (Antimicrob Agents Chemother, 2009).
≈ marks a conversion by molar mass, not a printed value. Calls of active or inactive are those of the source. The calls are words filed in the database; no cut-off is given here.

What was measured:
Enterococcus faecalis = assay: Antibacterial activity against vancomycin- resistant Enterococcus faecalis by CLSI M100-S18 method; format: functional
Enterococcus faecium = assay: Antibacterial activity against vancomycin- resistant Enterococcus faecium by CLSI M100-S18 method; format: functional
Listeria monocytogenes = assay: Antibacterial activity against Listeria monocytogenes by CLSI M100-S18 method; format: functional
Staphylococcus aureus [1] = assay: Antibacterial activity against ciprofloxacin-susceptible and methicillin-resistant Staphylococcus aureus by CLSI M100-S18 method; format: functional
Staphylococcus aureus [2] = assay: Antibacterial activity against non-ciprofloxacin-susceptible and methicillin-susceptible Staphylococcus aureus by CLSI M100-S18 method; format: functional
[3] = test system: Staphylococcus epidermidis; assay: Antibacterial activity against ciprofloxacin-susceptible and methicillin-resistant Staphylococcus epidermidis by CLSI M100-S18 method; format: functional
[4] = test system: Staphylococcus epidermidis; assay: Antibacterial activity against non-ciprofloxacin-susceptible and methicillin-susceptible Staphylococcus epidermidis by CLSI M100-S18 method; format: functional
[5] = test system: Staphylococcus haemolyticus; assay: Antibacterial activity against Staphylococcus haemolyticus by CLSI M100-S18 method; format: functional
Staphylococcus hominis [6] = assay: Antibacterial activity against Staphylococcus hominis by CLSI M100-S18 method; format: functional
[7] = test system: Staphylococcus lugdunensis; assay: Antibacterial activity against Staphylococcus lugdunensis by CLSI M100-S18 method; format: functional
[8] = test system: Staphylococcus saprophyticus; assay: Antibacterial activity against Staphylococcus saprophyticus by CLSI M100-S18 method; format: functional
Staphylococcus warneri [9] = assay: Antibacterial activity against Staphylococcus warneri by CLSI M100-S18 method; format: functional
Streptococcus agalactiae = assay: Antibacterial activity against Streptococcus agalactiae by CLSI M100-S18 method; format: functional
[10] = Antibacterial activity against Lancefield Streptococcus sp. 'group C' by CLSI M100-S18 method; format: functional
Streptococcus sp. = assay: Antibacterial activity against Lancefield Streptococcus sp. group F by CLSI M100-S18 method; format: functional
[11] = Antibacterial activity against Lancefield Streptococcus sp. 'group G' by CLSI M100-S18 method; format: functional
Streptococcus pneumoniae [12] = assay: Antibacterial activity against levofloxacin-susceptible Streptococcus pneumoniae by CLSI M100-S18 method; format: functional
Streptococcus pneumoniae [13] = assay: Antibacterial activity against non-levofloxacin susceptible Streptococcus pneumoniae by CLSI M100-S18 method; format: functional
Streptococcus pyogenes = assay: Antibacterial activity against Streptococcus pyogenes by CLSI M100-S18 method; format: functional
Streptococcus anginosus = assay: Antibacterial activity against Streptococcus anginosus by CLSI M100-S18 method; format: functional
Streptococcus equinus = assay: Antibacterial activity against Streptococcus bovis by CLSI M100-S18 method; format: functional
[14] = test system: Streptococcus constellatus; assay: Antibacterial activity against Streptococcus constellatus by CLSI M100-S18 method; format: functional
[15] = test system: Streptococcus intermedius; assay: Antibacterial activity against Streptococcus intermedius by CLSI M100-S18 method; format: functional
Streptococcus mitis = assay: Antibacterial activity against Streptococcus mitis by CLSI M100-S18 method; format: functional
Streptococcus oralis = assay: Antibacterial activity against Streptococcus oralis by CLSI M100-S18 method; format: functional
Streptococcus salivarius = assay: Antibacterial activity against Streptococcus salivarius by CLSI M100-S18 method; format: functional
Streptococcus sanguinis = assay: Antibacterial activity against Streptococcus sanguinis by CLSI M100-S18 method; format: functional
Citrobacter koseri [16] = assay: Antibacterial activity against Citrobacter koseri by CLSI M7-A7 method; format: functional
Haemophilus influenzae [17] = assay: Antibacterial activity against ciprofloxacin-susceptible Haemophilus influenzae by CLSI M7-A7 method; format: functional
Haemophilus influenzae [18] = assay: Antibacterial activity against non-ciprofloxacin-susceptible Haemophilus influenzae by CLSI M7-A7 method; format: functional
Klebsiella oxytoca [19] = assay: Antibacterial activity against Klebsiella oxytoca by CLSI M7-A7 method; format: functional
Legionella pneumophila = assay: Antibacterial activity against Legionella pneumophila by CLSI M7-A7 method; format: functional
Moraxella catarrhalis [20] = assay: Antibacterial activity against Moraxella catarrhalis by CLSI M7-A7 method; format: functional
Morganella morganii [21] = assay: Antibacterial activity against Morganella morganii by CLSI M7-A7 method; format: functional
Neisseria meningitidis [22] = assay: Antibacterial activity against Neisseria meningitidis by CLSI M7-A7 method; format: functional
Staphylococcus aureus [23] = assay: Antibacterial activity against ciprofloxacin-susceptible and methicillin-resistant Staphylococcus aureus assessed as percent susceptible isolates by CLSI M100-S18 method; format: functional
Staphylococcus aureus [24] = assay: Antibacterial activity against non-ciprofloxacin-susceptible and methicillin-susceptible Staphylococcus aureus assessed as percent susceptible isolates by CLSI M100-S18 method; format: functional
[25] = test system: Staphylococcus epidermidis; assay: Antibacterial activity against ciprofloxacin-susceptible and methicillin-resistant Staphylococcus epidermidis assessed as percent susceptible isolates by CLSI M100-S18 method; format: functional
[26] = test system: Staphylococcus epidermidis; assay: Antibacterial activity against non-ciprofloxacin-susceptible and methicillin-susceptible Staphylococcus epidermidis assessed as percent susceptible isolates by CLSI M100-S18 method; format: functional
[27] = test system: Staphylococcus haemolyticus; assay: Antibacterial activity against Staphylococcus haemolyticus assessed as percent susceptible isolates by CLSI M100-S18 method; format: functional
Staphylococcus hominis [28] = assay: Antibacterial activity against Staphylococcus hominis assessed as percent susceptible isolates by CLSI M100-S18 method; format: functional
[29] = test system: Staphylococcus lugdunensis; assay: Antibacterial activity against Staphylococcus lugdunensis assessed as percent susceptible isolates by CLSI M100-S18 method; format: functional
[30] = test system: Staphylococcus saprophyticus; assay: Antibacterial activity against Staphylococcus saprophyticus assessed as percent susceptible isolates by CLSI M100-S18 method; format: functional
Staphylococcus warneri [31] = assay: Antibacterial activity against Staphylococcus warneri assessed as percent susceptible isolates by CLSI M100-S18 method; format: functional
Streptococcus pneumoniae [32] = assay: Antibacterial activity against levofloxacin susceptible Streptococcus pneumoniae assessed as percent susceptible isolates by CLSI M100-S18 method; format: functional
Streptococcus pneumoniae [33] = assay: Antibacterial activity against non-levofloxacin susceptible Streptococcus pneumoniae assessed as percent susceptible isolates by CLSI M100-S18 method; format: functional
Citrobacter koseri [34] = assay: Antibacterial activity against Citrobacter koseri assessed as percent susceptible isolates by CLSI M7-A7 method; format: functional
Haemophilus influenzae [35] = assay: Antibacterial activity against ciprofloxacin-susceptible Haemophilus influenzae assessed as percent susceptible isolates by CLSI M7-A7 method; format: functional
Haemophilus influenzae [36] = assay: Antibacterial activity against non-ciprofloxacin-susceptible Haemophilus influenzae assessed as percent susceptible isolates by CLSI M7-A7 method; format: functional
Klebsiella oxytoca [37] = assay: Antibacterial activity against Klebsiella oxytoca assessed as percent susceptible isolates by CLSI M7-A7 method; format: functional
Moraxella catarrhalis [38] = assay: Antibacterial activity against Moraxella catarrhalis assessed as percent susceptible isolates by CLSI M7-A7 method; format: functional
Morganella morganii [39] = assay: Antibacterial activity against Morganella morganii assessed as percent susceptible isolates by CLSI M7-A7 method; format: functional
Neisseria meningitidis [40] = assay: Antibacterial activity against Neisseria meningitidis assessed as percent susceptible isolates by CLSI M7-A7 method; format: functional
[41] = test system: Staphylococcus epidermidis
[42] = test system: Staphylococcus epidermidis; remark: listed apart in the source

For `CC[C@H]1OC(=O)[C@H](C)[C@@H](O[C@H]2C[C@@](C)(OC)[C@@H](O)[C@H](C)O2)[C@H](C)[C@@H](O[C@@H]2O[C@H](C)C[C@H](N(C)C)[C@H]2O)[C@](C)(O)C[C@@H](C)CN(C)[C@H](C)[C@@H](O)[C@]1(C)O` [AZITHROMYCIN], the MIC50 (Enterococcus faecalis) was > 128 µg/mL, the MIC90 (Enterococcus faecalis) was > 128 µg/mL and the MIC50 (Enterococcus faecium) was > 128 µg/mL. The MIC90 (Enterococcus faecium) was > 128 µg/mL, the MIC50 (Listeria monocytogenes) was 0.5 µg/mL (≈ 0.668 µM) and the MIC90 (Listeria monocytogenes) was 1 µg/mL (≈ 1.34 µM). For the same compound, the MIC50 (Staphylococcus aureus [1]) was 1 µg/mL (≈ 1.34 µM), the MIC50 (Staphylococcus aureus [2]) was > 8 µg/mL and the MIC90 (Staphylococcus aureus [2]) was > 8 µg/mL. For the same compound, the MIC [3] was 0.25 µg/mL (≈ 0.334 µM), the MIC50 [4] was > 8 µg/mL and the MIC50 [5] was > 8 µg/mL. The MIC90 [5] was > 8 µg/mL, the MIC50 (Staphylococcus hominis [6]) was > 8 µg/mL and the MIC90 (Staphylococcus hominis [6]) was > 8 µg/mL. For the same compound, the MIC50 [7] was > 8 µg/mL, the MIC90 [7] was > 8 µg/mL and the MIC50 [8] was 1 µg/mL (≈ 1.34 µM). The MIC90 [8] was > 8 µg/mL, the MIC50 (Staphylococcus warneri [9]) was > 8 µg/mL and the MIC90 (Staphylococcus warneri [9]) was > 8 µg/mL. The MIC50 (Streptococcus agalactiae) was 0.5 µg/mL (≈ 0.668 µM), the MIC90 (Streptococcus agalactiae) was 0.5 µg/mL (≈ 0.668 µM) and the MIC50 [10] was 0.5 µg/mL (≈ 0.668 µM). It also gave an MIC90 [10] of 0.5 µg/mL (≈ 0.668 µM), an MIC50 (Streptococcus sp.) of 0.5 µg/mL (≈ 0.668 µM) and an MIC90 (Streptococcus sp.) of 0.5 µg/mL (≈ 0.668 µM). For the same compound, the MIC50 [11] was 0.5 µg/mL (≈ 0.668 µM), the MIC90 [11] was 0.5 µg/mL (≈ 0.668 µM) and the MIC50 (Streptococcus pneumoniae [12]) was 0.06 µg/mL (≈ 0.0801 µM). The MIC90 (Streptococcus pneumoniae [12]) was > 64 µg/mL, the MIC50 (Streptococcus pneumoniae [13]) was 4 µg/mL (≈ 5.34 µM) and the MIC90 (Streptococcus pneumoniae [13]) was > 64 µg/mL. For the same compound, the MIC50 (Streptococcus pyogenes) was 0.06 µg/mL (≈ 0.0801 µM), the MIC90 (Streptococcus pyogenes) was 8 µg/mL (≈ 10.7 µM) and the MIC50 (Streptococcus anginosus) was 0.06 µg/mL (≈ 0.0801 µM). The MIC90 (Streptococcus anginosus) was > 8 µg/mL, the MIC50 (Streptococcus equinus) was 1 µg/mL (≈ 1.34 µM) and the MIC90 (Streptococcus equinus) was 1 µg/mL (≈ 1.34 µM). The MIC50 [14] was 1 µg/mL (≈ 1.34 µM), the MIC90 [14] was 1 µg/mL (≈ 1.34 µM) and the MIC50 [15] was 1 µg/mL (≈ 1.34 µM). The MIC90 [15] was 1 µg/mL (≈ 1.34 µM), the MIC50 (Streptococcus mitis) was 1 µg/mL (≈ 1.34 µM) and the MIC90 (Streptococcus mitis) was 1 µg/mL (≈ 1.34 µM). The MIC50 (Streptococcus oralis) was 1 µg/mL (≈ 1.34 µM), the MIC90 (Streptococcus oralis) was 1 µg/mL (≈ 1.34 µM) and the MIC50 (Streptococcus salivarius) was 1 µg/mL (≈ 1.34 µM). The MIC90 (Streptococcus salivarius) was 1 µg/mL (≈ 1.34 µM), the MIC50 (Streptococcus sanguinis) was 1 µg/mL (≈ 1.34 µM) and the MIC90 (Streptococcus sanguinis) was 1 µg/mL (≈ 1.34 µM). The MIC50 (Citrobacter koseri [16]) was 8 µg/mL (≈ 10.7 µM), the MIC90 (Citrobacter koseri [16]) was > 8 µg/mL and the MIC50 (Haemophilus influenzae [17]) was 2 µg/mL (≈ 2.67 µM). It also gave an MIC90 (Haemophilus influenzae [17]) of 2 µg/mL (≈ 2.67 µM), an MIC50 (Haemophilus influenzae [18]) of 1 µg/mL (≈ 1.34 µM) and an MIC90 (Haemophilus influenzae [18]) of 8 µg/mL (≈ 10.7 µM). The MIC50 (Klebsiella oxytoca [19]) was > 8 µg/mL, the MIC90 (Klebsiella oxytoca [19]) was > 8 µg/mL and the MIC50 (Legionella pneumophila) was 0.03 µg/mL (≈ 0.0401 µM). It also gave an MIC90 (Legionella pneumophila) of 0.03 µg/mL (≈ 0.0401 µM), an MIC (Moraxella catarrhalis [20]) of 0.015 µg/mL (≈ 0.02 µM) and an MIC50 (Moraxella catarrhalis [20]) of 0.015 µg/mL (≈ 0.02 µM). The MIC90 (Moraxella catarrhalis [20]) was 0.03 µg/mL (≈ 0.0401 µM), the MIC50 (Morganella morganii [21]) was > 8 µg/mL and the MIC90 (Morganella morganii [21]) was > 8 µg/mL. For the same compound, the MIC50 (Neisseria meningitidis [22]) was 0.06 µg/mL (≈ 0.0801 µM), the MIC90 (Neisseria meningitidis [22]) was 0.06 µg/mL (≈ 0.0801 µM) and the Activity (Staphylococcus aureus [23]) was 94.7%. For the same compound, the Activity (Staphylococcus aureus [24]) was 18.2%, the Activity [25] was 100% and the Activity [26] was 0%. The Activity [27] was 39.6%, the Activity (Staphylococcus hominis [28]) was 30% and the Activity [29] was 66.7%. It also gave an Activity [30] of 100%, an Activity (Staphylococcus warneri [31]) of 76% and an Activity (Streptococcus pneumoniae [32]) of 62.5%. It also gave an Activity (Streptococcus pneumoniae [33]) of 36.5%, an Activity (Citrobacter koseri [34]) of 99% and an Activity (Haemophilus influenzae [35]) of 100%. It also gave an Activity (Haemophilus influenzae [36]) of 81.8%, an Activity (Klebsiella oxytoca [37]) of 90% and an Activity (Moraxella catarrhalis [38]) of 100%. For the same compound, the Activity (Morganella morganii [39]) was 76.5%, the Activity (Neisseria meningitidis [40]) was 100% and the MIC90 [41] was “inactive”. The MIC90 [42] was “inactive”.
